Structures are written as SMILES.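 In this assay, cells in 96-well plates receive the compound at five concentrations for 48 hours. Endpoints are linearly interpolated between the surrounding concentrations. At the GI50, growth is halved. The concentration for full growth arrest is given as TGI.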 Bounds are passed on as bounds.

Test systems include 786-0 renal; SK-OV-3 ovarian; RPMI-8226 leukemia; MALME-3M melanoma; A498 renal; HOP-62 NSCLC; OVCAR-5 ovarian; MOLT-4 leukemia; SF-295 CNS; M14 melanoma.
Experiment in all cases: growth of human tumour cells (NCI), 48 h

For `Brc1ccc(Nc2nc3ccccc3nc2Nc2ccc(Br)cc2)cc1`, the GI50 with 786-0 renal is 1.73 µM; in the assay with SK-OV-3 ovarian, 2.14 µM; in the assay on RPMI-8226 leukemia, 0.756 µM; with MALME-3M melanoma, 1.98 µM; in the assay on A498 renal, 0.0513 µM; with HOP-62 NSCLC, 1.43 µM. The GI50 in the assay on OVCAR-5 ovarian was 1.03 µM; in the assay with MOLT-4 leukemia, 1.15 µM; with SF-295 CNS, 1.44 µM. In addition, the TGI with 786-0 renal came to 5.9 µM; with SK-OV-3 ovarian, 7.69 µM; with RPMI-8226 leukemia, 5.87 µM; in the assay on MALME-3M melanoma it was 4.95 µM; in the assay on A498 renal, 2.75 µM; in the assay with HOP-62 NSCLC, 4.12 µM. Moreover, the TGI in the assay with OVCAR-5 ovarian amounted to 5.15 µM; with MOLT-4 leukemia, 9.45 µM; in the assay with SF-295 CNS it was 4.22 µM.
On to `O=C(N/C=C/C=C/Sc1ccccc1)OCc1ccccc1`, for which the TGI with 786-0 renal was 31 µM; with SK-OV-3 ovarian, 64.6 µM; with RPMI-8226 leukemia it was more than 100 µM; in the assay on HOP-62 NSCLC, 49.2 µM; in the assay on M14 melanoma, 32.9 µM; in the assay on OVCAR-5 ovarian it was 33.1 µM. The values for the TGI in the assay on MOLT-4 leukemia and in the assay with SF-295 CNS were more than 100 µM and 35.4 µM, respectively.
As to `CC(Cc1cccc2c1Nc1ccccc1S2)N(C)CCO` (stereo not drawn), the TGI in the assay on 786-0 renal is more than 100 µM; in the assay on SK-OV-3 ovarian, more than 100 µM; in the assay on MALME-3M melanoma, more than 100 µM; in the assay with A498 renal, 93.9 µM; in the assay on HOP-62 NSCLC, more than 100 µM; with M14 melanoma it was more than 100 µM. Further, the TGI in the assay with OVCAR-5 ovarian, in the assay with MOLT-4 leukemia and in the assay with SF-295 CNS was more than 100 µM each time.
Take `COc1cc2c(cc1OCCCCn1c(-c3cccs3)nc3ccccc31)N=C[C@@H]1CCCN1C2=O`: the GI50 in the assay on 786-0 renal is 1.71 µM; in the assay with SK-OV-3 ovarian, 3.32 µM; with RPMI-8226 leukemia it was 0.314 µM; in the assay with MALME-3M melanoma it was 1.74 µM; with A498 renal, 1.68 µM; in the assay on M14 melanoma it was 1.35 µM. The GI50 in the assay with OVCAR-5 ovarian is 3.27 µM; with MOLT-4 leukemia it was 3.79 µM. The TGI in the assay with 786-0 renal worked out at 5.9 µM; in the assay with SK-OV-3 ovarian it was 9.19 µM; with RPMI-8226 leukemia it was 1.62 µM; in the assay on MALME-3M melanoma, 3.27 µM; in the assay with A498 renal it was 4.76 µM; in the assay on M14 melanoma, 2.8 µM. Moreover, the TGI is 9.13 µM with OVCAR-5 ovarian and more than 100 µM in the assay on MOLT-4 leukemia.
In the case of `O=C([O-])CCc1ccccc1.O=C([O-])CCc1ccccc1.O=C([O-])CCc1ccccc1.O=C([O-])CCc1ccccc1.[Mo+2].[Mo+2]`, the GI50 in the assay with 786-0 renal, in the assay on SK-OV-3 ovarian, in the assay on RPMI-8226 leukemia, in the assay on MALME-3M melanoma, with M14 melanoma and with OVCAR-5 ovarian was more than 100 µM throughout. The GI50 in the assay with MOLT-4 leukemia and with SF-295 CNS was more than 100 µM in each case. Also, the TGI with 786-0 renal, in the assay with SK-OV-3 ovarian, in the assay on RPMI-8226 leukemia, in the assay with MALME-3M melanoma, in the assay with M14 melanoma and in the assay on OVCAR-5 ovarian was more than 100 µM in each case. In addition, the TGI with MOLT-4 leukemia and with SF-295 CNS was more than 100 µM each time.
On to `COc1ccccc1NC(=O)C(=O)Cc1cnc2ccccc2n1`, for which the TGI with 786-0 renal, in the assay with SK-OV-3 ovarian, with RPMI-8226 leukemia, in the assay with A498 renal, in the assay with M14 melanoma and in the assay with OVCAR-5 ovarian was more than 100 µM each time. The TGI in the assay on MOLT-4 leukemia and with SF-295 CNS was more than 100 µM each time.
In the case of `N#Cc1c(-c2ccccc2)cc(-c2cccs2)c(C#N)c1N`, the TGI in the assay on 786-0 renal, in the assay on RPMI-8226 leukemia, in the assay on MALME-3M melanoma, in the assay on A498 renal, with HOP-62 NSCLC and in the assay on M14 melanoma was more than 100 µM in each case. Also, the TGI in the assay with MOLT-4 leukemia and with SF-295 CNS was more than 100 µM each time.
For the compound `CCCCCCc1cc2cc(-c3csc(/C=C/c4ccccc4)n3)c(=O)oc2cc1O`, the GI50 is 4.62 µM in the assay on 786-0 renal; 28.1 µM with SK-OV-3 ovarian; 4.84 µM in the assay on RPMI-8226 leukemia; 14.7 µM in the assay on MALME-3M melanoma; 14.4 µM in the assay with A498 renal; 7.16 µM in the assay with HOP-62 NSCLC. The GI50 in the assay with OVCAR-5 ovarian was 40.8 µM; with MOLT-4 leukemia, 3.72 µM; in the assay on SF-295 CNS it was 13.1 µM. Further, the TGI is 17.1 µM in the assay on 786-0 renal; 80.3 µM in the assay on SK-OV-3 ovarian; 19.7 µM with RPMI-8226 leukemia; 34.6 µM in the assay with MALME-3M melanoma; 30.5 µM in the assay on A498 renal; 21.4 µM with HOP-62 NSCLC. Further, the TGI was more than 100 µM in the assay with OVCAR-5 ovarian, 15.1 µM in the assay with MOLT-4 leukemia and 27.2 µM in the assay with SF-295 CNS.
In the case of `Fc1ccc(C2SCc3nc4ccccc4n32)cc1F` (stereo not drawn), the TGI with 786-0 renal is more than 100 µM; in the assay with SK-OV-3 ovarian it was more than 100 µM; with RPMI-8226 leukemia, 36.7 µM; in the assay on MALME-3M melanoma, more than 100 µM; with A498 renal, more than 100 µM; in the assay on HOP-62 NSCLC, more than 100 µM. In addition, the figures for the TGI in the assay with M14 melanoma, with MOLT-4 leukemia and in the assay on SF-295 CNS were 76.7 µM, 56 µM and more than 100 µM, respectively.
With `C#CCn1c(=O)c2cccnc2n(CC#C)c1=O`, the TGI in the assay on 786-0 renal, with SK-OV-3 ovarian, with RPMI-8226 leukemia, with MALME-3M melanoma, in the assay on HOP-62 NSCLC and with M14 melanoma was more than 100 µM each time. The TGI in the assay on OVCAR-5 ovarian, in the assay with MOLT-4 leukemia and in the assay with SF-295 CNS was more than 100 µM each time.
`Cc1ccc(NC(=O)c2nc(S(C)(=O)=O)oc2-c2ccc(F)cc2)cc1Nc1ccc2ncn(C)c(=O)c2c1`: the GI50 was 2 µM in the assay on 786-0 renal; 14.1 µM in the assay on SK-OV-3 ovarian; 16.3 µM in the assay on A498 renal; 2.49 µM with HOP-62 NSCLC; 1.75 µM in the assay with M14 melanoma; 2.1 µM in the assay with OVCAR-5 ovarian. In addition, the GI50 in the assay with SF-295 CNS is 16 µM. For the same compound, the TGI with 786-0 renal amounted to 3.55 µM; in the assay on SK-OV-3 ovarian, 27.1 µM; in the assay on A498 renal, 29.8 µM; with HOP-62 NSCLC it was 7.11 µM; in the assay with M14 melanoma, 3.72 µM; in the assay with OVCAR-5 ovarian, 5.29 µM. In addition, in the assay on SF-295 CNS, the TGI was 31 µM.

The record behind these values is PubChem BioAssay (NCI).
